# Laboratory results taken from ChEMBL document CHEMBL4130453, “Discovery of an Isothiazole-Based Phenylpropanoic Acid GPR120 Agonist as a Development Candidate for Type 2 Diabetes” (ACS Med Chem Lett, 2017).
# pEC50, pIC50: −log10 of the molar value.
# Legend:
# [1] = Oral bioavailability in SPF Sprague-Dawley rat at 10 mg/kg by LC-MS/MS analysis; type: ADME, organism-based; details: in vivo
# [2] = Kinetic solubility of the compound in PBS; type: physicochemical; details: read-out: Kinetic_solubility
# [3] = target: T1, Free fatty acid receptor 4 (Mus musculus, UniProt Q7TMA4); assay: Agonist activity at mouse GPR120 by calcium flux assay; type: functional
# T1 sequence (Q7TMA4 whole entry): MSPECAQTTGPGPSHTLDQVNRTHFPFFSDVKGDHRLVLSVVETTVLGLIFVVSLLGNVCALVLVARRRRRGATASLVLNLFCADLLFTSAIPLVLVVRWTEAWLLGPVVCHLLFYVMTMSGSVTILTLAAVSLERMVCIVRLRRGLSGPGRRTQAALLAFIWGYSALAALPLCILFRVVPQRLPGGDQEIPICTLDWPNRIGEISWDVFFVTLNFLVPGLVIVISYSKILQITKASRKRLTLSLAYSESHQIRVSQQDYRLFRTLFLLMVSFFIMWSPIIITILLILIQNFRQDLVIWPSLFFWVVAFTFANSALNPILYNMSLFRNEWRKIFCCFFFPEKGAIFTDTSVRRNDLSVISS
# [4] = Ratio of drug uptake in DIO C57bl/6J mouse adipose tissue to plasma at 20 mg/kg, po administered via gavage; type: ADME, organism-based; details: adipose tissue and plasma
# Mus musculus [5] = assay: Antidiabetic activity in diet-induced obese C57BL/6 mouse assessed as reduction in plasma glucose delta AUC level at 0.3 mg/kg, po administered 30 mins prior to glucose challenge measured 90 mins post glucose challenge by OGTT relative to control; type: functional; parameters: scale not given: the % may be the effect or the level left
# [6] = Metabolic stability in human liver microsomes assessed as parent compound remaining measured at 10 mins; type: ADME, microsome; details: read-out: Stability
# [7] = Cmax in DIO C57bl/6J mouse at 20 mg/kg, po administered via gavage by LC-MS/MS analysis; type: ADME, organism-based; parameters: dose 20 mg/kg, route oral; details: in vivo
# Mus musculus [8] = assay: Antidiabetic activity in diet-induced obese C57BL/6 mouse assessed as reduction in plasma glucose delta AUC level administered orally 30 mins prior to glucose challenge measured 90 mins post glucose challenge by OGTT; type: functional, organism-based
# Mus musculus [9] = assay: Antidiabetic activity in GPR120 knockout diet-induced obese C57BL/6 mouse assessed as reduction in plasma glucose delta AUC level at 60 mg/kg, po qd administered 30 mins prior to glucose challenge measured 90 mins post glucose challenge for 3 weeks; type: functional; parameters: scale not given: the % may be the effect or the level left
# [10] = target: Voltage-gated inwardly rectifying potassium channel KCNH2 (Homo sapiens, UniProt Q12809); assay: Inhibition of human ERG
# [11] = Metabolic stability in mouse liver microsomes assessed as parent compound remaining measured at 10 mins; type: ADME, microsome; details: liver microsomes, read-out: Stability
# hERG (KCNH2) [12] = target: T2, hERG (KCNH2) (Homo sapiens, UniProt Q12809); assay: Inhibition of human ERG at 30 uM by patch express assay relative to control
# [13] = Efflux ratio of apparent permeability from basolateral to apical side over apical to basolateral side in MDCK cells; type: ADME, cell-based, Canis lupus familiaris; details: dog
# Mus musculus [14] = assay: Antidiabetic activity in diet-induced obese C57BL/6 mouse assessed as reduction in plasma glucose delta AUC level at 1 mg/kg, po administered 30 mins prior to glucose challenge measured 90 mins post glucose challenge by OGTT relative to control; type: functional; parameters: scale not given: the % may be the effect or the level left
# [15] = Inhibition of CYP450 (unknown origin) measured up to 10 uM; type: ADME; details: human
# [16] = AUClast in DIO C57bl/6J mouse at 20 mg/kg, po administered via gavage by LC-MS/MS analysis; type: ADME, organism-based; parameters: dose 20 mg/kg, route oral, time 0 - last; details: in vivo
# [17] = Cmax in SPF Sprague-Dawley rat at 10 mg/kg, po by LC-MS/MS analysis; type: ADME, organism-based; parameters: dose 10 mg/kg, route oral; details: in vivo
# [18] = Half life in SPF Sprague-Dawley rat at 10 mg/kg, po by LC-MS/MS analysis; type: ADME, organism-based; details: in vivo
# Mus musculus [19] = assay: Antidiabetic activity in diet-induced obese C57BL/6 mouse assessed as reduction in plasma glucose delta AUC level at 0.1 mg/kg, po administered 30 mins prior to glucose challenge measured 90 mins post glucose challenge by OGTT relative to control; type: functional; parameters: scale not given: the % may be the effect or the level left
# [20] = AUClast in SPF Sprague-Dawley rat at 10 mg/kg, po by LC-MS/MS analysis; type: ADME, organism-based; parameters: dose 10 mg/kg, time 0 - last, route oral; details: in vivo
# [21] = target: Free fatty acid receptor 4 (Homo sapiens, UniProt Q5NUL3); assay: Agonist activity at human GPR120 short splice variant expressed in HEK293 cells assessed as increase in intracellular calcium flux incubated for 30 mins measured for 300 secs at 1 sec interval by Fluo-4 NW dye based FLIPR assay; type: functional, cell-based
# [22] = Half life in DIO C57bl/6J mouse at 20 mg/kg, po administered via gavage by LC-MS/MS analysis; type: ADME, organism-based; details: in vivo
# hERG (KCNH2) [23] = target: T2, hERG (KCNH2); assay: Inhibition of human ERG at 3 uM by patch express assay relative to control
# Mus musculus [24] = assay: Antidiabetic activity in diet-induced obese C57BL/6 mouse assessed as reduction in plasma glucose delta AUC level at 3 mg/kg, po administered 30 mins prior to glucose challenge measured 90 mins post glucose challenge by OGTT relative to control; type: functional; parameters: scale not given: the % may be the effect or the level left
# [25] = Apparent permeability from apical to basolateral side in MDCK cells; type: ADME, cell-based, Canis lupus familiaris; details: dog
# [26] = Metabolic stability in rat liver microsomes assessed as parent compound remaining measured at 10 mins; type: ADME, microsome; details: liver microsomes, read-out: Stability
# [27] = target: Free fatty acid receptor 1 (Homo sapiens, UniProt O14842); assay: Agonist activity at human GPR40 by calcium flux assay; type: functional
# hERG (KCNH2) [28] = target: T2, hERG (KCNH2); assay: Inhibition of human ERG at 10 uM by patch express assay relative to control
# [29] = Protein binding in rat plasma; type: ADME, cell-free; details: read-out: PPB (converted)
# [30] = target: T3, PXR (nuclear receptor subfamily 1 group I member 2) (Homo sapiens, UniProt O75469); assay: Activation of PXR (unknown origin) at 5 uM relative to control; details: read-out: Activity
# T3 sequence (O75469 whole entry): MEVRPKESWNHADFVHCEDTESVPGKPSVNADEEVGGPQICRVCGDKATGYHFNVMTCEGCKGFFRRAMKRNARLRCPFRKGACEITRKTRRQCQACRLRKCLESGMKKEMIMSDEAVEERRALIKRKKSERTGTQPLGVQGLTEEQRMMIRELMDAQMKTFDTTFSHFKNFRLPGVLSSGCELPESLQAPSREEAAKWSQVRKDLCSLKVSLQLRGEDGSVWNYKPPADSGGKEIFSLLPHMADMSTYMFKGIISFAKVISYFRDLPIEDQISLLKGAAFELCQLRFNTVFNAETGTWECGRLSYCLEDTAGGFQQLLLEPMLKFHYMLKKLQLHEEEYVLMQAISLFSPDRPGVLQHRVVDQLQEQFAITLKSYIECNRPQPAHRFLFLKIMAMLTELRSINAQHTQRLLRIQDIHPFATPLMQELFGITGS
# [31] = Protein binding in mouse plasma; type: ADME, cell-free; details: read-out: PPB (converted)
# Mus musculus [32] = assay: Antidiabetic activity in diet-induced obese C57BL/6 mouse harboring wild type GPR120 assessed as reduction in plasma glucose delta AUC level at 60 mg/kg, po qd administered 30 mins prior to glucose challenge measured 90 mins post glucose challenge for 3 weeks; type: functional; parameters: scale not given: the % may be the effect or the level left
# [33] = Protein binding in human plasma; type: ADME, cell-free; details: read-out: PPB (converted)
# T2 sequence (Q12809 whole entry): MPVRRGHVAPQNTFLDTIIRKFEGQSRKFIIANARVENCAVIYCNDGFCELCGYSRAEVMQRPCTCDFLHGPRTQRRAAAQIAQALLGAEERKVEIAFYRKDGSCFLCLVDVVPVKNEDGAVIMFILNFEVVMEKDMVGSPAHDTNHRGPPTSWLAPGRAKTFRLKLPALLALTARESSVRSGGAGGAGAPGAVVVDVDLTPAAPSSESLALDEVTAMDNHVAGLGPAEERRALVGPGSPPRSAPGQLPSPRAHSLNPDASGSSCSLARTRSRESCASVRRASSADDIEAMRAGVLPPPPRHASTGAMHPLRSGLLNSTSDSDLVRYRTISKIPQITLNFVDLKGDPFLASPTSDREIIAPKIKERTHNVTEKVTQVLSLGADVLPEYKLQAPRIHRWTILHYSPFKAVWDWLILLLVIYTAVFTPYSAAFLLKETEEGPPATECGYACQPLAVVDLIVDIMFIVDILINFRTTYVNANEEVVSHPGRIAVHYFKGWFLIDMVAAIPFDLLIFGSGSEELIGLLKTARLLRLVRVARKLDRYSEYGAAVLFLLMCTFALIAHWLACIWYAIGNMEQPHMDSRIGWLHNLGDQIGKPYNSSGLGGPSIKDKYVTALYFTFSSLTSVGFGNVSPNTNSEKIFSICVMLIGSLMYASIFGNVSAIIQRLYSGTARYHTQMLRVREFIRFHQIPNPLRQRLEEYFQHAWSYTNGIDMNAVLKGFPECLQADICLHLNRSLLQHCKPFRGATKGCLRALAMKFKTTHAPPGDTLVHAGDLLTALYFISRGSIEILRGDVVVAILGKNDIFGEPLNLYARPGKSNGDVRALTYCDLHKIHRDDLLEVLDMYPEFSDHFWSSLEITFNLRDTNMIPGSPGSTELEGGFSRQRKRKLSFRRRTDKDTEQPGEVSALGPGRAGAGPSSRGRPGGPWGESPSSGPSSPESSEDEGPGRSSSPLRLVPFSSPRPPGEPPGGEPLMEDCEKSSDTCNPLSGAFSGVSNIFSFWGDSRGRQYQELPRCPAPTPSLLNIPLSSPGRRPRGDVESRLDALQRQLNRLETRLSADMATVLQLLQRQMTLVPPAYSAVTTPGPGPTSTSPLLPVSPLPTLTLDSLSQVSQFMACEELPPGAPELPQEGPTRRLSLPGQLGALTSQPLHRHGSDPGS
# Chain of Voltage-gated inwardly rectifying potassium channel KCNH2 (Q12809 whole entry): as above
# Chain of Free fatty acid receptor 1 (O14842 whole entry): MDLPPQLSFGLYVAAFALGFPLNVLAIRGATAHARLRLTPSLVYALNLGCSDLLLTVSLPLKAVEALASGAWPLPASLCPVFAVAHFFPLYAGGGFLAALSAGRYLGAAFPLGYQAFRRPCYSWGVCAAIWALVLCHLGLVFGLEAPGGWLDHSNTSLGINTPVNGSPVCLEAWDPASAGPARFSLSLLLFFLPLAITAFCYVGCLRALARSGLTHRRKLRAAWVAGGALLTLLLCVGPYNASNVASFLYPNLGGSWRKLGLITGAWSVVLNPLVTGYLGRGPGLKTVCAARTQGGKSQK
# Chain of Free fatty acid receptor 4 (Homo sapiens, UniProt Q5NUL3) (Q5NUL3 whole entry, looked up, stated change not applied, canonical isoform): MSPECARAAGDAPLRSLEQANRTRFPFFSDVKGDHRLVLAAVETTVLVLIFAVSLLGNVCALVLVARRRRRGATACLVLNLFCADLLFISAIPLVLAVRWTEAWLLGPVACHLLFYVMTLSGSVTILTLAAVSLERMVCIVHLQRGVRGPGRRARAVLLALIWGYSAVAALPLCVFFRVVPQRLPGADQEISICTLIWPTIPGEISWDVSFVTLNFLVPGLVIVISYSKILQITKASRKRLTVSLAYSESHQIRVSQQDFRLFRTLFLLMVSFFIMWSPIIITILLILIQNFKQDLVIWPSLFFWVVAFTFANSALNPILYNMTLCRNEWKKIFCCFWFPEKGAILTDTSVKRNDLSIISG
smiles,measurement,setting,value
O=C(O)CCc1cc(F)c(OCc2c(-c3ccc(Cl)cc3F)nsc2C(F)(F)F)c(F)c1,bioavailability,[1],57.2%
same,solubility kinetic,[2],38.9 µM
same,pEC50,[3],7.11
same,Kp,[4],0.08
same,Activity,Mus musculus [5],34%
same,remaining at 10 min,[6],87 to 100%
same,Cmax,[7],9.27 µg/mL
same,Activity,Mus musculus [8],Dose-dependent effect
same,Activity,Mus musculus [9],2%
same,pIC50,[10],< 4.30
same,remaining at 10 min,[11],87 to 100%
same,inhibition at 30 µM,hERG (KCNH2) [12],12.5%
same,efflux ratio,[13],1.05
same,Activity,Mus musculus [14],61%
same,inhibition (INH),[15],Not Active
same,AUC(0-t),[16],46.8 µg·h/mL
same,Cmax,[17],3.56 µg/mL
same,half-life,[18],0.98 h
same,Activity,Mus musculus [19],3%
same,AUC(0-t),[20],4.47 µg·h/mL
same,pEC50,[21],7.38
same,half-life,[22],5.23 h
same,inhibition at 3 µM,hERG (KCNH2) [23],5.9%
same,Activity,Mus musculus [24],83%
same,Papp A→B,[25],175 nm/s
same,remaining at 10 min,[26],87 to 100%
same,pEC50,[27],< 5.30
same,inhibition at 10 µM,hERG (KCNH2) [28],11.2%
same,fraction unbound,[29],0.0019
same,activity at 5 µM,[30],25.4%
same,fraction unbound,[31],0.0032
same,Activity,Mus musculus [32],137%
same,fraction unbound,[33],0.0013
